Measured values as given in US9808428B2, “Compositions and methods for the delivery of therapeutics” (priority 2014, dated 2017).

System: HIV-1ADA
Assay: Antiretroviral activity by reverse transcriptase (RT) activity in HIV-1 infected MDM
Type: cell-based
Conditions: 30-100 μM; MDM challenged with HIV-1ADA >15 days after 8 hours of treatment
Experimental: The antiretroviral activity was determined by reverse transcriptase (RT) activity and HIV-1 p24 antigen expression in HIV-1 infected MDM. […] Overall, development of long acting targeted MVC, optionally together with reverse transcriptase, protease and/or integrase inhibitors leads to improved pharmacokinetics of cART and promote improved drug adherence and access.

Cc1nnc(C(C)C)n1C1C[C@H]2CC[C@@H](C1)N2CC[C@H](NC(=O)C1CCC(F)(F)CC1)c1ccccc1 (stereo in doubt) [free MVC, maraviroc]
RT activity reductions compared to untreated infected cells: 22%
